{"source": "patent US8501810B2", "about": "“Guanidino acetic acid used as an animal food additive” (AlzChem Trostberg GmbH, priority 2004, dated 2013)", "key": {"[1]": {"experiment": "Feed for growing hens, additive in air-dried feed, 42 days' growing duration", "type": "in vivo", "text": "1.4 Feed for Growing Hens\nIn addition, with this feed additive, the feed consumption decreased by about 6% compared with previous feeding methods.\nIn addition, it was found in this experiment that even an addition of 0.032% by weight of guanidinoacetic acid (0.32 g/kg) to the air-dried feed increased the final weight by 3% for 42 days' growing duration. The feed consumption decreased by 3% compared with previous feeding methods."}, "[2]": {"experiment": "Comparative example: creatine in the feed for growing hens, 41 days growing duration", "type": "in vivo", "details": "0.2% (2 g/kg) in air-dried feed", "text": "2. Comparative Example (According to EP 920 689)\nThe effect of the addition of creatine in the feed for growing hens was investigated.\nThe feed consumption decreased by about 2-3% compared with previous feeding methods."}, "[3]": {"experiment": "Stability in acidic aqueous solution", "type": "physicochemical", "text": "Thus in contrast to creatine, the majority of the compounds administered or fed, guanidinoacetic acid and/or salts of guanidinoacetic acid, are not degraded by instability reactions, for example in the stomach, and excreted before resorption, but are in fact available in the corresponding physiological metabolic reactions."}, "[4]": {"details": "young rats, cited from earlier work"}, "Staphyllococcus aureus": {"system": "Staphyllococcus aureus", "details": "cited from earlier work"}, "[5]": {"details": "1.112% in base feed, also in combination with methionine; cited from earlier work"}, "[6]": {"details": "control group, 0.04% by weight (0.4 g/kg) in air-dried feed"}, "[7]": {"details": "0.032% by weight (0.32 g/kg) in air-dried feed"}, "[8]": {"details": "0.092% by weight (0.92 g/kg) in air-dried feed"}}}
{"smiles": "CN(CC(=O)O)C(=N)N.O", "note": "[creatine monohydrate, reference compound]", "values": [{"measurement": "decrease in feed consumption", "setting": "[1]; [6]", "result": "no decreased feed consumption"}, {"measurement": "increase in the final weight", "setting": "[1]; [6]", "result": "no increase in the final weight"}]}
{"smiles": "CN(CC(=O)O)C(=N)N", "note": "[creatine]", "values": [{"measurement": "decrease in feed consumption compared with previous feeding methods", "setting": "[2]", "result": "2-3%"}, {"measurement": "increase in the final weight compared with previous feeding methods", "setting": "[2]", "result": 4, "unit": "%"}, {"measurement": "meat quality", "setting": "[2]", "result": "improved quality"}, {"measurement": "nature of the increase in weight (lean-body mass index)", "setting": "[2]", "result": "only by meat gain, but not by fat gain"}]}
{"smiles": "N=C(N)NCC(=O)O", "note": "[guanidinoacetic acid]", "values": [{"measurement": "decrease in feed consumption compared with previous feeding methods", "setting": "[1]; [7]", "result": 3, "unit": "%"}, {"measurement": "increase in the final weight", "setting": "[1]; [7]", "result": 3, "unit": "%"}, {"measurement": "decrease in feed consumption compared with previous feeding methods", "setting": "[1]; [8]", "result": "about 6%"}, {"measurement": "increase in the final weight compared with previous feeding methods", "setting": "[1]; [8]", "result": 7, "unit": "%"}, {"measurement": "meat quality", "setting": "[1]; [8]", "result": "improved quality"}, {"measurement": "nature of the increase in weight (lean-body mass index)", "setting": "[1]; [8]", "result": "solely by meat gain, but not by fat gain or water accumulation"}, {"measurement": "stability in acidic aqueous solution in contrast to creatine and creatine monohydrate", "setting": "[3]", "result": "significantly higher stability"}, {"measurement": "creatine content in the skeletal musculature and in the heart muscle", "setting": "[4]; additional administration of methionine", "result": "increased"}, {"measurement": "effect on the muscle creatine level", "setting": "[4]; in combination with folacin and vitamin B12", "result": "no effect"}, {"measurement": "effect on growth", "setting": "[4]", "result": "inhibitory activity"}, {"measurement": "use against bacterial infections in animal experiments", "setting": "Staphyllococcus aureus", "result": "successfully used"}, {"measurement": "feed utilization", "setting": "[5]", "result": "significant decrease"}, {"measurement": "weight gain", "setting": "[5]", "result": "significant decrease"}]}
